Reference: patent US8063089B2, “Inhibitors of nucleophosmin (NPM) and methods for inducing apoptosis” (Arizona Board of Regents on Behalf of the University of …, priority 2007, dated 2011)

What was measured:
[1] = tested on: MCF7, PC-3, DU145 and Granta cells; assay: Annexin V staining and flow cytometry; format: cell-based, human; settings: several different cancer cell lines, 24 h
Method: Furthermore, apoptosis induced by NSC348884 was confirmed by Annexin V staining and flow cytometry (FACS) analysis.
(§1) Apoptosis Assays. Drug treated LNCaP cells were examined for apoptotic morphology using a fluorescence staining technique as described previously (Qi and Martinez, 2003). Briefly, cells were exposed to DMSO or 1 to 5 μM of NSC348884 for 24 hr and were harvested by trypsinization. After staining with a mixed dye solution containing […] each of acridine orange and ethidium bromide the morphology of the cells were observed by fluorescence microscopy, and the number of apoptotic cells was quantified. Studies were performed in triplicate and mean+SD calculated. In all cases a minimum of 200 cells were counted for each sample. Using Annexin V staining to detect apoptosis, treated MCF-7, PC-3, DU145 and Granta (−519, −4, −22) cells were harvested by trypsinization and rinsed with cold PBS once. After centrifugation for 5 min, cancer cells were resuspended in 500 μl of 1 Annexin V binding buffer (BioVision, Annexin V-FITC Reagent Kit, Cat. #1001-1000) and then added 1 μl of Annexin V-FITC and 1 μl of Propidium Iodide (BioVision, Annexin VFITC Reagent Kit). After incubation for 5 min at room temperature in the dark, the samples were analyzed by flow cytometry.

p53 [2] = assay: p53 / p21 Western blotting; format: cell-based, human
14-3-3 dimer = 14-3-3 dimer formation control, native PAGE; format: cell-based, human; settings: LNCaP and HCT116 cells, 5 and 6 μM, 24 hr
Method: (§2) To examine whether NSC348884 specifically interacts with NPM and disrupts its oligomer formation, LNCaP and HCT116 cells with wild type NPM (no translocations) were treated with varying concentrations of NSC348884 (0, 5, 6 μM) for 24 hr, lyzed under non-denaturing conditions and analyzed by native PAGE which is an excellent tool for detecting oligomers and aggregates since the protein retains its folded conformation. We utilized 14-3-3 which forms dimers as a control. […] The two bands shown in HCT116 represent different isoforms of 14-3-3 proteins. Taken together, NSC348884 is able to bind to NPM and interfere with oligomer formation of NPM specifically.
(§3) Immunoblotting. LNCaP or HCT116 cells were lysed in NP-40 lysis buffer containing 50 mM Tris-Cl (pH 7.4), 0.15 M NaCl, 0.5% NP-40, 1 mM DTT, 50 mM sodium fluoride and 2 μl/ml of a protease inhibitor cocktail (Sigma, St. Louis, Mo.). Protein concentrations were-determined using the Bio-Rad protein assay kit (Hercules, Calif.) and 50 μg of protein was resolved by electrophoresis on a 10% SDS-PAGE. […] The membrane was subjected to the indicated antibodies and the proteins were detected by the SuperSignal West Pico detection system (Pierce, Rockford, Ill.). […]

[3] = tested on: distinct cancer cell lines; assay: Inhibition of cell proliferation, summary; format: cell-based; settings: Homo sapiens
Method: Cell Viability Assays. LNCaP, Granta-4, Granta-22 and Granta-519 cell lines were seeded into 96-well tissue culture plates with 50,000 cells per well, cultured for 24 hours and exposed to NSC348884, doxorubicin or combination for four days. All studies were performed in triplicate and were repeated 3 different times. After incubation, 20 μL of 2 mg/m L 3-(4,5-dimethylthiazol-2-yl)-2,5-diphenyltetrazolium bromide (MTT) were added to each well and incubated an additional four hours. The media and MTT dye were aspirated, and 100 μL dimethyl sulfoxide (DMSO) was added to each well, absorbance was read at 540 nm on a plate reader (Wallac Vector, PerkinElmer). Data was expressed as the percent survival of control calculated from the absorbance, corrected for background.

LNCaP prostate cell line = assay: MTT cell viability assay, LNCaP; format: cell-based; settings: Homo sapiens, 96 h, 4 days
Method: NPM plays an essential role in cellular activities such as ribosome biogenesis, cell proliferation, apoptosis and centrosome duplication. Therefore, inhibition of NPM should affect cell growth. To determine the effect of NPM inhibitor NSC348884 on cancer cell proliferation, cell viability assays were conducted on LNCaP and Granta (human mantle cell lymphoma) cells (Granta-519, -4, -22) with varying concentrations of NSC348884 over 4 days. […] The difference in IC50 is attributed to the differential proliferative capacity of the two types of cancer cell lines. Since Rev peptide binds to NPM and potentates the doxorubicin-induced decrease of cellular viability and inhibition of tumor growth in nude mice (Chan et al., 2005), we evaluated if NSC348884 would be additive or synergistic with doxorubicin, a therapy commonly used in this disease. An IC50 of 0.01-0.02 μM for doxorubicin was established for all 3 Granta cell lines, while at 0.1 nM doxorubicin had no effect on cell viability
Cells and Reagents. […]
Cell Viability Assays. […] The media and MTT dye were aspirated, and 100 μL dimethyl sulfoxide (DMSO) was added to each well, absorbance was read at 540 nm on a plate reader (Wallac Vector, PerkinElmer). Data was expressed as the percent survival of control calculated from the absorbance, corrected for background.

LNCaP cells = assay: Apoptosis by morphology (acridine orange/ethidium bromide fluorescent staining); format: cell-based, human; settings: 24 hr
Method: as §1

NPM oligomer = biological target: T1, NPM oligomer (Homo sapiens, UniProt P06748); assay: NPM oligomer formation by native PAGE / immunoblotting; format: cell-based; settings: LNCaP and HCT116 cells, 5 and 6 μM, 24 hr
T1 construct: endogenous in cells; host or cells: LNCaP and HCT116
Method: as §2, §3

[4] = tested on: Granta (-4, -22 and -519) mantle cell lymphoma cell lines; assay: MTT cell viability assay, Granta; format: cell-based, human; settings: for IC50: Homo sapiens, 96 h, Granta-4, -22, -519, MTT
Method: Cells and Reagents. Human cancer cell lines used herein include prostate (LNCaP, PC3, DU145), colon (HCT116), lung (A549), breast (MCF7) purchased from American Type Culture Collection (Rockville, Md.) and mantle cell lymphoma (Granta-4, -22 and -519) were maintained in RPMI 1640 medium (Mediatech, Va.) supplemented with 10% fetal bovine serum, 2 mM sodium pyruvate and 100 units/ml penicillin/streptomycin at 37° C. in a humidified atmosphere of 5% CO2.

p53 [5] = assay: p53 immunocytochemistry; format: cell-based, human; settings: LNCaP and A549, 5 μM, 6 h, versus vehicle
Excerpt: Mounting evidences indicate that NPM negatively regulates tumor suppressor p53 through interaction with p53 directly to prevent its phosphorylation on Ser15 (Maiguel et al., 2004) or through binding with p14ARF to impair the ARF-Hdm2 association and increase Hdm2/p53 complex formation (Gjerset, 2006). NPM knockdown by small interfering RNA enhances p53 phosphorylation and transcriptional activity. Therefore, inhibition of NPM by NSC348884 could affect p53 status. To address this, LNCaP cells were untreated and treated with different dosage of NSC348884 for 2 h to 24 h, and the changes in p53 protein and phosphorylation levels were determined by Western blot. Indeed, NSC348884 increased both p53 protein level and phosphorylation on Ser15 in a dose-dependent manner after 2 h of incubation (FIG. 5A).
Immunocytochemistry. LNCaP, A549 or HCT116 cells grown on cover slips were treated with DMSO or 5 μM of NSC348884 for 6 hr and then fixed in cold methanol:acetone (3:7) for 5 minutes. The cover slips were washed twice with cold PBS and blocked with blocking buffer (1% BSA, 0.01% saponin and 1% normal mouse serum in PBS) for 1 hr at room temperature. The cover slips were then immunostained using anti-p53 antibody at the dilution 1:100 in blocking buffer overnight at 4° C. […]

[6] = tested on: HCT116 colon cancer cells; assay: SCID mouse HCT116 colon cancer xenograft; format: in vivo, SCID mice; settings: for survival: i.p. for 4 weeks, NSC348884 1.5 mg/kg Mon/Wed/Fri, doxorubicin 20 ug/kg Mon
Method: SCID mice were inoculated with 10×10^6 HCT116 colon cancer cells in their flanks to form measurable tumors in the range 60-100 mm^3. Mice were pair matched with 12 mice per arm. NSC348884 was administered (Monday, Wednesday, Friday), Doxorubicin (Monday), combination or vehicle by intra-peritoneal injection each for 4 weeks. Measurements of tumor growth were performed twice a week and tumor volume estimated according to the formula: [(width)^2×length]/2. Mice were weighed before the beginning of the experiment and twice a week thereafter to check for signs of toxicity. Control mice (upper panel, first bar) were treated with vehicle (DMSO), NSC348884 at 1.5 mg/kg NSC348884 (upper panel, second bar), very low dose doxorubicin at 20 ug/kg (upper panel, third bar), and the combination of NSC348884/doxorubicin (upper panel, fourth bar).

LNCaP = assay: Apoptosis markers by immunoblotting (PARP cleavage, H2AX phosphorylation); format: cell-based, human; settings: 4 and 5 μM
Method: Immunoblotting. LNCaP or HCT116 cells were lysed in NP-40 lysis buffer containing 50 mM Tris-Cl (pH 7.4), 0.15 M NaCl, 0.5% NP-40, 1 mM DTT, 50 mM sodium fluoride and 2 μl/ml of a protease inhibitor cocktail (Sigma, St. Louis, Mo.). Protein concentrations were-determined using the Bio-Rad protein assay kit (Hercules, Calif.) and 50 μg of protein was resolved by electrophoresis on a 10% SDS-PAGE. The proteins were then transferred onto a nitrocellulose membrane and nonspecific binds were blocked by incubating with 5% nonfat milk in TBST buffer (0.01 M Tris-Cl, pH 8.0, 0.15 M NaCl, 0.5% Tween-20) at room temperature for 1 hr. The membrane was subjected to the indicated antibodies and the proteins were detected by the SuperSignal West Pico detection system (Pierce, Rockford, Ill.). For native PAGE gel experiment, the samples were not denatured by heating and the electrophoresis was run in the absence of SDS.

T1 sequence (P06748 whole entry): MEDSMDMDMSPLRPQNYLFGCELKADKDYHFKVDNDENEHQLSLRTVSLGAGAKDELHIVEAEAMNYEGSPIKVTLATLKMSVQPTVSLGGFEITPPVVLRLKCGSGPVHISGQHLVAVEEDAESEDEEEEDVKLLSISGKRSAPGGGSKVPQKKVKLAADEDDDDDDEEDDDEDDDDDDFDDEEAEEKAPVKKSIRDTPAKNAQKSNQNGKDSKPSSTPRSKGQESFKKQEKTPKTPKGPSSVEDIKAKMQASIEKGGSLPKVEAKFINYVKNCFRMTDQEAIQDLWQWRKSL

| Structure (SMILES) | apoptosis by Annexin V binding [1] | p21 protein level (p53 [2]; HCT116, 5 μM, 24 h) | p53 protein level and phosphorylation on Ser15 (p53 [2]; LNCaP, after 2 h of incubation) | p53 level (p53 [2]; breast cancer cell line MCF7) | 14-3-3 dimer formation (14-3-3 dimer) | IC50 [3] [nM] | IC50 (LNCaP prostate cell line) [nM] | apoptosis by morphology, dose dependence (LNCaP cells; 0-5 μM) | apoptosis by morphology (LNCaP cells; 4 and 5 μM) [%] | NPM oligomer formation (NPM oligomer) | IC50 ([4]; 4 days) [nM] | effect on cell viability ([4]; NSC348884 at 1 μM alone, 4 days, MTT) | p53 by immunocytochemistry staining (p53 [5]) | survival [6] [days] | survival advantage ([6]; versus control) | PARP-cleavage and H2AX phosphorylation on Ser139 (LNCaP) | effect on cell viability ([4]; doxorubicin at 0.1 nM alone) |
| --- | --- | --- | --- | --- | --- | --- | --- | --- | --- | --- | --- | --- | --- | --- | --- | --- | --- |
| Cc1ccc2nc(CN(CCN(Cc3nc4ccc(C)cc4[nH]3)Cc3nc4ccc(C)cc4[nH]3)Cc3nc4ccc(C)cc4[nH]3)[nH]c2c1 [NSC348884, N,N,N′,N′-tetrakis[(5-methyl-2-benzimidazolyl)methyl]-1,2-ethanediamine] | induced apoptosis | up-regulated | increased | enhanced p53 | no effect | 1700 to 4000 | ~4000 | dose-dependent increase in apoptosis | > 50 | disrupted | ~1700 | no effect | higher p53 proteins were induced | 53 | statistically significant survival advantage | correlated well with PARP-cleavage and induction H2AX phosphorylation | – |
| COc1cccc2c1C(=O)c1c(O)c3c(c(O)c1C2=O)C[C@@](O)(C(=O)CO)C[C@@H]3O[C@H]1C[C@H](N)[C@H](O)[C@H](C)O1 [doxorubicin, reference compound] | – | – | – | – | – | – | – | – | – | – | 10 to 20 | – | – | 41 | – | – | no effect |
